Publication PMC4026281 (Journal of neurochemistry, 2012)
Entries after “also recorded” stand apart in the source; their conditions may differ.

Key:
[1] = tested on: α6β2*-nAChR, crude striatal synaptosomes; assay type: biochemical, mouse
[2] = tested on: nAChRs on SuSC GABAergic terminals (crude synaptosomes); assay type: biochemical, mouse
α6β2* and α3β2* nAChR = conditions: cited from earlier work
[3] = tested on: α6* nAChRs, crude rat striatal synaptosomes; conditions: cited from earlier work

α-conotoxin PIA [α-CtxPIA]
inhibition of ACh-stimulated [^3H]-dopamine release [1]: 24.2 ± 3.3%
effect on ACh-evoked [^3H]-GABA release (abstract) [2]: did not affect [^3H]-GABA release
inhibition of ACh-stimulated [^3H]-GABA release by 100nM α-CtxPIA [2]: completely unable to inhibit
inhibition of ACh-stimulated [^3H]-GABA release by α-CtxPIA [2]: could not be reliably fit to an inhibition model; also recorded: no significant inhibition
subtypes inhibited by the α-conotoxin (α6β2* and α3β2* nAChR): selective inhibitor of α6β2*-nAChR
reversibility of inhibition of DA release [3]: slowly reversible
IC50 ([3]; read-out: IC50, inhibition of DA release stimulated by nicotine or ACh): 1.48 nM
